From publication PMC9232501, “Results of the phase I CCTG IND.231 trial of CX-5461 in patients with advanced solid tumors enriched for DNA-repair deficiencies” (Nature Communications, 2022)
Where “and” joins values, the source holds several entries; their conditions need not be identical. Equal values may be shown once.

Key:
XPA knockout HAP1 cells = test: HAP1 XPA knockout cytotoxicity (WST-1 assay) with and without UVA; format: cell-based; settings: for WST-1 raw signal (Figure 5h): replicates
Protocol: (§1) Fig. 5 Comparison of G4 ligand photosensitization. […] Vertical axis, fractional survival, horizontal axis log10 drug concentration (M) (f) Representative images of CPD immunofluorescent staining under UV and drug treatment conditions for U2OS cells, quantified from biological duplicates in (g) (h) Scale bar = 100um. U2OS cells were treated with drug or vehicle control, then immediately irradiated with UVA 125 mJ/cm^2; and fixed 1 h later for immunofluorescence staining with CPD antibody. g Distribution of mean intensity of CPD level per cell (total n = in labels), with two biological repeats per condition. Vertical axis, mean CPD intensity per cell, horizontal axis, conditions (h) WT or KO XPA HAP1 cells assayed for cytotoxicity. Vertical axis, fractional survival (WST-1 assay). The horizontal axis, log10 drug concentration (M). Error bars = standard deviation of the mean. Three biological repeats per condition.
(§2) Human epidermal keratinocytes (HEKa) cells were sourced from Thermo Fisher Scientific, and were grown in EpiLife™ Medium with HKGS. HAP WT and XPA knockout cell lines (Horizon Discovery) were cultured in IMDM, 10% FCS. Human HCT116 cells, U2OS cells (ATCC) were grown in McCoy’s 5 A medium with 10% FBS and L-glutamine. All cell lines are mycoplasma free and have been authenticated by STR or SNP profiling. CX-5461 was provided by Senhwa Biosciences, Inc. PDS is from Sigma-Aldrich, BRACO-19 from Alfa Chemistry, PhENDC3 is from Sigma-Aldrich, γ -H2AX antibody from Abcam (1:1000 for IF) and CPD antibody (1:1500) from Cosmo Bio Ltd. (Catalog number: CAC-NM-DAD-001). The WST-1 assay was performed as previously described, γ H2AX foci staining was performed as previously described. Immunofluorescence staining of CPD was performed according to the protocol from the manufacturer (Cosmo Bio Ltd).

HCT116 cells [1] = test: ROS measurement with H2DCFDA before/after UVA 125 mJ/cm^2; format: cell-based, Human; settings: CX-5461 0.1 μM or PDS 10 μM for 1 h
Protocol: ROS measurement with H2DCFDA: HCT116 cells were treated with vehicle, CX-5461 0.1 μM or PDS 10 μM for 1 h, then were added with H2DCFDA for 45 min before initial fluorescence measurement. Cells were then irradiated with UVA 125 mJ/cm^2, and immediately sent for a second fluorescent measurement. The ratio of the second and the first fluorescent measurement was calculated as the level of ROS induced by UVA. Assays were performed in the 1-hour time frame within which UV damage manifests, in contrast to G4 ligand-induced damage which takes 3–4 h to be measurable.
Supplementary Figures and Tables
Supplementary Figure 1. UVA radiation increased double-stranded DNA breaks and ROS.
Representative pictures of g -H2AX immunofluorescent staining with and without UVA radiation, for […]
condition, quantified in (b) Quantile and mean intensity of g-H2AX level per cell, vertical axis. UV and drug factor conditions, horizontal axis. Experiments were repeated two times (biological duplicates) and similar results were obtained. Number of cells as in Figure 5 g (c) The ratio of ROS level measured after UVA irradiation versus before UVA irradiation was calculated. Biological triplicates. The horizontal bar = median. ***P<0.0001, Welch’s t-test; n=8
(1 picture or pasted object on this page, not shown here)

G-quadruplex (G4) DNA = test system: G-quadruplex (G4) DNA; design: method as in PMID 28211448; settings: in vitro and in vivo; cited from earlier work
HCT116 cells [2] = test: HCT116 cytotoxicity (WST-1 assay) with and without UVA radiation; format: cell-based, Human
Protocol: as §1, §2

## Cc1cnc(CNC(=O)c2c(=O)c3ccc(N4CCCN(C)CC4)nc3n3c2sc2ccccc23)cn1 [CX-5461]
XPA knockout HAP1 cells; conc 1.00E-07, 125 mJ/cm2 XPA
  WST-1 raw signal (Figure 5h): 0.1279 and 0.1288
XPA knockout HAP1 cells; conc 1.00E-07, XPA No UV
  WST-1 raw signal (Figure 5h): 0.1234 and 0.1195
XPA knockout HAP1 cells; conc 1.25E-08, 125 mJ/cm2 XPA
  WST-1 raw signal (Figure 5h): 0.1288 and 0.1302
XPA knockout HAP1 cells; conc 1.25E-08, XPA No UV
  WST-1 raw signal (Figure 5h): 3.2483 and 2.9851
XPA knockout HAP1 cells; conc 1.56E-09, 125 mJ/cm2 XPA
  WST-1 raw signal (Figure 5h): 0.1344 and 0.1335
XPA knockout HAP1 cells; conc 1.56E-09, XPA No UV
  WST-1 raw signal (Figure 5h): 3.436 and 3.4453
XPA knockout HAP1 cells; conc 2.00E-07, 125 mJ/cm2 XPA
  WST-1 raw signal (Figure 5h): 0.0895 and 0.1298
XPA knockout HAP1 cells; conc 2.00E-07, XPA No UV
  WST-1 raw signal (Figure 5h): 0.1255 and 0.1238
XPA knockout HAP1 cells; conc 2.50E-08, 125 mJ/cm2 XPA
  WST-1 raw signal (Figure 5h): 0.1291 and 0.1284
XPA knockout HAP1 cells; conc 2.50E-08, XPA No UV
  WST-1 raw signal (Figure 5h): 0.4389 and 0.6241
XPA knockout HAP1 cells; conc 3.13E-09, 125 mJ/cm2 XPA
  WST-1 raw signal (Figure 5h): 0.128 and 0.1287
XPA knockout HAP1 cells; conc 3.13E-09, XPA No UV
  WST-1 raw signal (Figure 5h): 3.4207 and 3.5618
XPA knockout HAP1 cells; conc 3.91E-10, 125 mJ/cm2 XPA
  WST-1 raw signal (Figure 5h): 2.554 and 2.4891
XPA knockout HAP1 cells; conc 3.91E-10, XPA No UV
  WST-1 raw signal (Figure 5h): 3.4121 and 3.399
XPA knockout HAP1 cells; conc 5.00E-08, 125 mJ/cm2 XPA
  WST-1 raw signal (Figure 5h): 0.1275 and 0.1296
XPA knockout HAP1 cells; conc 5.00E-08, XPA No UV
  WST-1 raw signal (Figure 5h): 0.1252 and 0.1218
XPA knockout HAP1 cells; conc 6.25E-09, 125 mJ/cm2 XPA
  WST-1 raw signal (Figure 5h): 0.1286 and 0.1316
XPA knockout HAP1 cells; conc 6.25E-09, XPA No UV
  WST-1 raw signal (Figure 5h): 3.488 and 3.4015
XPA knockout HAP1 cells; conc 7.81E-10, 125 mJ/cm2 XPA
  WST-1 raw signal (Figure 5h): 0.5854 and 0.7406
XPA knockout HAP1 cells; conc 7.81E-10, XPA No UV
  WST-1 raw signal (Figure 5h): 3.4022 and 3.4603
XPA knockout HAP1 cells; with UVA
  effect of UVA radiation on cytotoxicity: to a greater extent in XPA knockout cells
HCT116 cells [1]
  ROS in the presence of UVA (ratio after/before UVA): markedly increased
G-quadruplex (G4) DNA
  G4 binding and stabilization: potent G4 binder and stabilizer
HCT116 cells [2]; 1.00E-07 M, 5mJ/cm2 UV
  WST-1 reading (source data of fractional survival): 0.1726 and 0.1634
HCT116 cells [2]; 1.00E-07 M, 125 mJ/cm2 UV
  WST-1 reading (source data of fractional survival): 0.1356 and 0.1403
HCT116 cells [2]; 1.00E-07 M, no UV
  WST-1 reading (source data of fractional survival): 0.3459 and 0.3709
HCT116 cells [2]; 1.25E-08 M, 5mJ/cm2 UV
  WST-1 reading (source data of fractional survival): 1.8446 and 1.2623
HCT116 cells [2]; 1.25E-08 M, 125 mJ/cm2 UV
  WST-1 reading (source data of fractional survival): 0.2266 and 0.2178
HCT116 cells [2]; 1.25E-08 M, no UV
  WST-1 reading (source data of fractional survival): 2.7124 and 3.0988
HCT116 cells [2]; 1.56E-09 M, 5mJ/cm2 UV
  WST-1 reading (source data of fractional survival): 3.1522 and 3.1435
HCT116 cells [2]; 1.56E-09 M, 125 mJ/cm2 UV
  WST-1 reading (source data of fractional survival): 1.3637 and 1.8262
HCT116 cells [2]; 1.56E-09 M, no UV
  WST-1 reading (source data of fractional survival): 3.1762 and 3.2869
HCT116 cells [2]; 2.00E-07 M, 5mJ/cm2 UV
  WST-1 reading (source data of fractional survival): 0.1417 and 0.1383
HCT116 cells [2]; 2.00E-07 M, 125 mJ/cm2 UV
  WST-1 reading (source data of fractional survival): 0.1411 and 0.1324
HCT116 cells [2]; 2.00E-07 M, no UV
  WST-1 reading (source data of fractional survival): 0.3331 and 0.2744
HCT116 cells [2]; 2.50E-08 M, 5mJ/cm2 UV
  WST-1 reading (source data of fractional survival): 0.4834 and 0.4002
HCT116 cells [2]; 2.50E-08 M, 125 mJ/cm2 UV
  WST-1 reading (source data of fractional survival): 0.1513 and 0.1801
HCT116 cells [2]; 2.50E-08 M, no UV
  WST-1 reading (source data of fractional survival): 2.611 and 2.0841
HCT116 cells [2]; 3.13E-09 M, 5mJ/cm2 UV
  WST-1 reading (source data of fractional survival): 2.2833 and 2.9624
HCT116 cells [2]; 3.13E-09 M, 125 mJ/cm2 UV
  WST-1 reading (source data of fractional survival): 0.7443 and 0.527
HCT116 cells [2]; 3.13E-09 M, no UV
  WST-1 reading (source data of fractional survival): 3.0831 and 3.1401
HCT116 cells [2]; 3.91E-10 M, 5mJ/cm2 UV
  WST-1 reading (source data of fractional survival): 3.2465 and 3.2794
HCT116 cells [2]; 3.91E-10 M, 125 mJ/cm2 UV
  WST-1 reading (source data of fractional survival): 2.6106 and 3.2813
HCT116 cells [2]; 3.91E-10 M, no UV
  WST-1 reading (source data of fractional survival): 3.2563 and 3.2975
HCT116 cells [2]; 5.00E-08 M, 5mJ/cm2 UV
  WST-1 reading (source data of fractional survival): 0.1995 and 0.2071
HCT116 cells [2]; 5.00E-08 M, 125 mJ/cm2 UV
  WST-1 reading (source data of fractional survival): 0.1444 and 0.1401
HCT116 cells [2]; 5.00E-08 M, no UV
  WST-1 reading (source data of fractional survival): 0.8754 and 0.871
HCT116 cells [2]; 6.25E-09 M, 5mJ/cm2 UV
  WST-1 reading (source data of fractional survival): 2.1762 and 2.4422
HCT116 cells [2]; 6.25E-09 M, 125 mJ/cm2 UV
  WST-1 reading (source data of fractional survival): 0.3527 and 0.3295
HCT116 cells [2]; 6.25E-09 M, no UV
  WST-1 reading (source data of fractional survival): 2.9424 and 3.2905
HCT116 cells [2]; 7.81E-10 M, 5mJ/cm2 UV
  WST-1 reading (source data of fractional survival): 3.2172 and 3.1228
HCT116 cells [2]; 7.81E-10 M, 125 mJ/cm2 UV
  WST-1 reading (source data of fractional survival): 2.9376 and 2.9926
HCT116 cells [2]; 7.81E-10 M, no UV
  WST-1 reading (source data of fractional survival): 3.2642 and 3.2669
HCT116 cells [2]; UV 5 mJ/cm^2 and 125 mJ/cm^2
  potentiation of UVA-induced cytotoxicity: Strong potentiation
